According to US5625083A, “Dinitroglycerol esters of unsaturated fatty acids and prostaglandins” (priority 1995, dated 1997):
Like-named read-outs stand apart in the source and are kept apart here.

How the values were obtained:
[1] = tested on: human platelets; assay: ADP-induced aggregation of human platelets; assay type: cell-based; settings: for inhibition of ADP induced human platelet aggregation: moderate antiaggregating activity
Procedure: 1,3Dinitroglycerol ester of prostaglandin D2 inhibited aggregation of human platelets induced by ADP ([…]) in dose 0.1 mg/ml of plasma on 50%.

[2] = tested on: RAT UTERUS; assay: Rat uterus contraction; assay type: cell-based; settings: for EC50: Rattus norvegicus
[3] = tested on: isolated rat aorta; assay: Isolated rat aorta relaxation / contraction; assay type: cell-based; settings: for EC50: Rattus norvegicus; for effect on isolated rat aorta: result in words
[4] = tested on: GUINEA PIG TRACHEA; assay: Isolated guinea pig trachea relaxation / contraction; assay type: cell-based; settings: for EC50: Cavia porcellus
[5] = tested on: RAT STOMACH; assay: Rat stomach contraction; assay type: cell-based; settings: for EC50: Rattus norvegicus
[6] = tested on: RAT COLON; assay: Rat colon contraction; assay type: cell-based; settings: for EC50: Rattus norvegicus
[7] = tested on: isolated rat aorta; assay: Stability of ethanolic solution of NITROPROSTON (relaxation of isolated rat aorta contracted with adrenaline after storage); assay type: cell-based; settings: read-out: Relaxation of isolated rat aorta contracted with adrenaline, ED5O
Excerpt: Stability of ethanolic solution of NITROPROSTON.
Relaxation of isolated rat aorta
months contracted with adrenaline, ED5O, M*10^-6

[8] = tested on: rat and rabbit tissues; assay: Hypertensive activity in experiments with rat and rabbit tissues; settings: relative to parent PGE2
[9] = tested on: heart rate; assay: Heart rate and tachyphylaxis in experimental animals; assay type: in vivo
[10] = tested on: volunteers and patients with bronchus obstruction; assay: Bronchodilation in volunteers and patients with bronchus obstruction; assay type: in vivo, human; settings: given as a spray (5-7×10^-3 mg per dose)
Excerpt: This raises the possibility of using NITROPROSTON to treat bronchospasms.

[11] = tested on: mice; assay: Mice survival under conditions of hypobaric hypoxia; assay type: in vivo; settings: Hypobary (9000 m); 1 mg/kg; control 18.5
Excerpt: (§1) INFLUENCE OF NITROPROSTON ON MICE SURVIVAL
UNDER CONDITIONS OF HYPOBARIC HYPOXIA AND

[12] = tested on: mice; assay: Mice survival under toxic concentration of CO; assay type: in vivo
Excerpt: (§2) NITROPROSTON protected laboratory animals from a variety of noxious factors. It increased the survival of mice in an atmosphere with elevated CO or NO2 concentration: survival in the experimental group was 1.5-4 times higher than in the control group.
as §1
(§3) TOXIC CONCENTRATION OF CO OR NO2

[13] = tested on: mice; assay: Mice survival under toxic concentration of NO2; assay type: in vivo; settings: NO2 (700 mg/m^3); 1 mg/kg; control 17
Excerpt: as §2, §1, §3

[14] = tested on: mice; assay: Toxicity in mice; assay type: in vivo
[15] = tested on: rats with experimental hypercholesterolaemia; assay: Lipid spectrum of serum of rats with experimental hypercholesterolaemia; assay type: in vivo, rat; settings: 15 μg/kg intraperitoneally, 6 times per week, one month
Procedure: Lipids and lipid fractions in sera of rats with experimental hypercholesterolaemea were determined after one month of animal development with indicated drugs in a dose 15 μg/kg body weight intraperitoneally. 6 times per week. Rats not developed by drugs served as a control group.

[16] = tested on: rats with experimental hypercholesterolaemia; assay: Peroxidation of serum or tissue lipids (MDA) of rats with experimental hypercholesterolaemia; assay type: in vivo, rat; settings: 15 μg/kg intraperitoneally, 6 times per week, one month
Procedure: MDA contents as a parameter of lipid peroxidation were estimated after one month of animal development with indicated drugs in a dose 15 μg/kg body weight intraperitoneally, 6 times per week. Rats not developed by drugs served as a control.

[17] = tested on: human platelets; settings: parent compound, no own test described; cited from earlier work
[18] = contraction, read-out: stimulating rat uterine contractions, EC50
[19] = read-out: RAT UTERUS, contraction, EC50
[20] = read-out: ISOLATED RAT AORTA relaxation, EC50
[21] = read-out: GUINEA PIG TRACHEA relaxation, EC50
[22] = compared with prostaglandin F2α
[23] = relaxation, read-out: vasodilating effect on the isolated rat aorta, EC50

## CC/C=C\C/C=C\C/C=C\CCCCCCCC(=O)OC(CO[N+](=O)[O-])CO[N+](=O)[O-] [1,3-dinitroglycerol ester of 9,12,15-octadecatrienoic acid]
[1]
  inhibition of ADP induced human platelet aggregation: 30-50%

## CCCCC/C=C\C/C=C\C/C=C\C/C=C\CCCC(=O)OC(CO[N+](=O)[O-])CO[N+](=O)[O-] [1,3-dinitroglycerol ester of arachidonic acid]
[1]; ADP (1×10^-5), dose 0.1 mg/ml of plasma
  inhibition of aggregation of human platelets induced by ADP: almost completely inhibited

## CC/C=C\C/C=C\C/C=C\C/C=C\C/C=C\C/C=C\CCC(=O)OC(CO[N+](=O)[O-])CO[N+](=O)[O-] [1,3-dinitroglycerol ester of docosahexaenoic acid]
[1]
  inhibition of ADP induced human platelet aggregation: 30-50%

## CCCCC[C@H](O)/C=C/[C@H]1C(=O)C[C@H](O)[C@@H]1C/C=C\CCCC(=O)OC(CO[N+](=O)[O-])CO[N+](=O)[O-] [1,3-dinitroglycerol ester of prostaglandin D2]
[1]; Homo sapiens, Platelet, ADP (1×10M), dose 0.1 mg/ml of plasma
  inhibition at 100 µg/mL: 50%

## CCCCC[C@H](O)/C=C/[C@@H]1[C@@H](C/C=C\CCCC(=O)OC(CO[N+](=O)[O-])CO[N+](=O)[O-])[C@@H](O)C[C@H]1O [NITROPROST-F, 1,3-dinitroglycerol ester of prostaglandin F2α]
[2]; [18]
  EC50: 9 nM
[2]; [19]
  EC50: 9 ± 1.7 nM
[2]; relative to prostaglandin F2α
  effectiveness in stimulating rat uterine contractions, times more than prostaglandin F2α: more than 10 times
[3]; [20]
  EC50: 540 ± 190 nM
[4]; [21]
  EC50: 10000 ± 1500 nM
[5]
  EC50: 130 ± 10 nM
[5]; [22]
  activity in rat stomach contraction: lower activity
[6]
  EC50: 175 ± 70 nM
[6]; [22]
  effectiveness on rat colon: as effective as prostaglandin F2α

## CCCCC[C@H](O)/C=C/[C@H]1[C@H](O)CC(=O)[C@@H]1C/C=C\CCCC(=O)OC(CO[N+](=O)[O-])CO[N+](=O)[O-] [NITROPROSTON, 1,3-dinitroglycerol ester of prostaglandin E2]
[7]; time of storage 1 month
  EC50: 1540 ± 210 nM
[7]; time of storage 12 months
  EC50: 1770 ± 148 nM
[2]; [19]
  EC50: 400 ± 100 nM
[3]; [20]
  EC50: 680 ± 120 nM
[3]; [23]
  EC50: 680 nM
[4]; [21]
  EC50: 7 nM
[4]; relaxation, read-out: bronchodilating activity, EC50 in isolated guinea pig trachea
  EC50: 7.18 nM
[5]
  EC50: 60 ± 10 nM
[8]
  hypertensive activity, times higher than that of the parent PGE2: 5 times
[9]
  effect on heart rate: did not affect the heart rate
  tachyphylaxis: no tachyphylaxis was observed
[10]
  bronchodilation in volunteers and patients with bronchus obstruction: potent, effective bronchodilator
[11]
  Survival, %: 82%
[12]; CO (11 g/m^3), 1 mg/kg, control 41
  Survival, %: 66%
[12]; mice, atmosphere with elevated CO or NO2 concentration
  survival in the experimental group, times higher than in the control group: 1.5-4 times
[13]
  Survival, %: 65%
[14]
  LD50: > 100 mg
[15]
  HDL cholesterol (HDLC), changes of the contents (%, relative to control): 123%
  HDLC/TSC, changes (%, relative to control): 128%
  LDL cholesterol, changes of the contents (%, relative to control): 57%
  Total lipids, changes of the contents (%, relative to control): 67%
  Total serum cholesterol (TSC), changes of the contents (%, relative to control): 95%
  Triglicerides, changes of the contents (%, relative to control): 95%
[16]
  MDA level (%, relative to control), Aorta: 44%
  MDA level (%, relative to control), Liver: 77%
  MDA level (%, relative to control), Serum: 85%

## CCCCC[C@H](O)/C=C/[C@H]1[C@H](O)CC(=NO)[C@@H]1CCCCCCC(=O)OC(CO[N+](=O)[O-])CO[N+](=O)[O-] [NITROPROX, 1,3-dinitroglycerol ester of 9-oxyiminoprostaglandin E1]
[3]; [23]
  EC50: 640 nM
[1]; Homo sapiens, Platelet, read-out: antiaggregating properties, IC50, ADP-induced aggregation of human platelets
  IC50: 1100 nM
[15]
  HDL cholesterol (HDLC), changes of the contents (%, relative to control): 114%
  HDLC/TSC, changes (%, relative to control): 138%
  LDL cholesterol, changes of the contents (%, relative to control): 76%
  Total lipids, changes of the contents (%, relative to control): 92%
  Total serum cholesterol (TSC), changes of the contents (%, relative to control): 96%
  Triglicerides, changes of the contents (%, relative to control): 79%
[16]
  MDA level (%, relative to control), Aorta: 32%
  MDA level (%, relative to control), Liver: 104%
  MDA level (%, relative to control), Serum: 101%

## CCCCC[C@H](O)/C=C/[C@H]1[C@H](O)CC(=O)[C@@H]1C/C=C\CCCC(=O)O [PGE2, prostaglandin E2, reference compound]
[2]; [19]
  EC50: 80 ± 16 nM
[3]; read-out: ISOLATED RAT AORTA contraction, EC50
  EC50: 84000 ± 1000 nM
[3]
  effect on isolated rat aorta: induced muscle contraction
[4]; [21]
  EC50: 140 ± 80 nM
[5]
  EC50: 40 ± 15 nM

## CCCCC[C@H](O)/C=C/[C@@H]1[C@@H](C/C=C\CCCC(=O)O)[C@@H](O)C[C@H]1O [PGF2α, prostaglandin F2α, reference compound]
[2]; [18]
  EC50: 110 nM
[2]; [19]
  EC50: 110 ± 40 nM
[3]
  effect on isolated rat aorta: contraction
[4]; result in words
  effect on isolated guinea pig trachea: contraction
[5]
  EC50: 50 ± 15 nM
[6]
  EC50: 130 ± 71 nM

## CCCCC[C@H](O)/C=C/[C@H]1[C@H](O)CC(=O)[C@@H]1CCCCCCC(=O)OC(CO[N+](=O)[O-])CO[N+](=O)[O-] [PROSTANIT, 1,3-dinitroglycerol ester of prostaglandin E1]
[3]; relaxation, read-out: relaxing effect on the isolated rat aorta, EC50
  EC50: 2100 nM
[1]; Homo sapiens, Platelet, read-out: inhibition of ADP-induced aggregation of human platelets, IC50
  IC50: 190 nM
[15]
  HDL cholesterol (HDLC), changes of the contents (%, relative to control): 76%
  HDLC/TSC, changes (%, relative to control): 122%
  LDL cholesterol, changes of the contents (%, relative to control): 70%
  Total lipids, changes of the contents (%, relative to control): 72%
  Total serum cholesterol (TSC), changes of the contents (%, relative to control): 78%
  Triglicerides, changes of the contents (%, relative to control): 72%

## CCCCC/C=C\C/C=C\C/C=C\C/C=C\CCCC(=O)O [arachidonic acid]
[17]
  effect on platelet aggregation (parent acid): powerful inducer of platelet aggregation

## CCC=CCC=CCC=CCC=CC=CC(O)CCCC(=O)OCC(CO[N+](=O)[O-])O[N+](=O)[O-] (centres unmarked) [dinitroglycerol ester of 5-hydroxyeicosapentaenoic acid]
[1]
  inhibition of ADP induced human platelet aggregation: 30-50%
